Test results taken from patent publication US20250100977A1, “MERCAPTOPYRIMIDINE COMPOUNDS THAT INHIBIT NONHOMOLOGOUS END JOINING AND METHODS THEREOF” (INDIAN INSTITUTE OF SCIENCE, priority 2021, published 2025).
pIC50: −log10 of the molar value. Where two headings read alike, the source gives them in different places.

Tests used:
SUDHL8 = assay: Cytotoxicity in SUDHL8; type: cell-based; conditions: Table 2; read-out: IC50 in cancer cell lines, SUDHL8
Experimental: (§1) Ligase IV specificity of the compounds of the present invention inside the cells were also determined using Ligase IV knock out (KO) cell line N114 compared to the wild type Nalm6 (Table 2, FIGS. 5C, D, E and F). […] Table 1 showing IC50 of SCR7 derivatives in cancer cell lines Nalm6 and HeLa. IC50 was calculated using GraphPad Prism software from the percentage of viable cells following treatment with the compounds at 48 h. Table 2 showing IC50 of SCR116 and SCR132 in a panel of 16 cancer cell lines.

U118 = assay: Cytotoxicity in U118; type: cell-based; conditions: Table 2; read-out: IC50 in cancer cell lines, U118
Experimental: as §1

Molt3 = assay: Cytotoxicity in Molt3; type: cell-based; conditions: Table 2; read-out: IC50 in cancer cell lines, Molt3
Experimental: as §1

HeLa = assay: Cytotoxicity (viable cells) in HeLa; type: cell-based; conditions: Table 2; read-out: IC50 in cancer cell lines, HeLa
Experimental: (§2) The compounds of the present invention were screened initially in leukemic and cervical cancer cell lines (Table 1). […] In cervical cancer cell line HeLa, IC50 was 5 and 2 μM, respectively for SCR116 and SCR132 (FIG. 5A-B).
as §1

DNA Ligase IV/XRCC4 = target: T1, DNA Ligase IV/XRCC4 (Homo sapiens, UniProt P49917); conditions: 200 μM; background statement; cited from earlier work
T1 construct: made in house; host or cells: bacteria

L1210 = assay: Cytotoxicity in L1210; type: cell-based; conditions: Table 2; read-out: IC50 in cancer cell lines, L1210
Experimental: as §1

Raji = assay: Cytotoxicity in Raji; type: cell-based; conditions: Table 2; read-out: IC50 in cancer cell lines, Raji
Experimental: as §1

EAC = assay: Cytotoxicity in EAC; type: cell-based, mice; conditions: Table 2; read-out: IC50 in cancer cell lines, EAC
Experimental: as §1

[1] = Bioavailability in mice serum by HPLC; conditions: intraperitoneal, 20 mg/kg body weight
Experimental: The bioavailability of the compounds of the present disclosure were analysed in mice serum at different time points (0.5, 1, 2, 4, 6, 8, 10, 12, 24 and 48 h) by HPLC at 232 nm wavelength (FIGS. 10N-P).

CEM = assay: Cytotoxicity in CEM; type: cell-based; conditions: Table 2; read-out: IC50 in cancer cell lines, CEM
Experimental: as §1

[2] = test system: Ligase IV knock out (KO) cell line N114; assay: Cytotoxicity in Ligase IV knock out cell line N114; type: cell-based; conditions: Table 2, 48 h, read-out: IC50 in cancer cell lines, N114
Experimental: as §1

Supt1 = assay: Cytotoxicity in Supt1; type: cell-based; conditions: Table 2; read-out: IC50 in cancer cell lines, Supt1
Experimental: as §1

HCT116 = assay: Cytotoxicity in HCT116; type: cell-based; conditions: Table 2; read-out: IC50 in cancer cell lines, HCT116
Experimental: as §1

LN229 = assay: Cytotoxicity in LN229; type: cell-based; conditions: Table 2; read-out: IC50 in cancer cell lines, LN229
Experimental: as §1

[3] = test system: cancer cell lines, particularly leukemia; conditions: background statement; cited from earlier work
Molt4 = assay: Cytotoxicity in Molt4; type: cell-based, human; conditions: Table 2; read-out: IC50 in cancer cell lines, Molt4
Experimental: as §1

Nalm6 = assay: Cytotoxicity (viable cells) in Nalm6; type: cell-based; conditions: Table 2; read-out: IC50 in cancer cell lines, Nalm6
Experimental: as §2, §1

MCF7 = assay: Cytotoxicity in MCF7; type: cell-based; conditions: Table 2; read-out: IC50 in cancer cell lines, MCF7
Experimental: as §1

Reh = assay: Cytotoxicity in Reh; type: cell-based; conditions: Table 2; 48 h; read-out: IC50 in cancer cell lines, Reh
Experimental: as §2, §1

[4] = test system: Ligase IV knock out (KO) cell line N114; conditions: Vartak et al. 2018, cited from earlier work

T1 sequence (P49917 whole entry): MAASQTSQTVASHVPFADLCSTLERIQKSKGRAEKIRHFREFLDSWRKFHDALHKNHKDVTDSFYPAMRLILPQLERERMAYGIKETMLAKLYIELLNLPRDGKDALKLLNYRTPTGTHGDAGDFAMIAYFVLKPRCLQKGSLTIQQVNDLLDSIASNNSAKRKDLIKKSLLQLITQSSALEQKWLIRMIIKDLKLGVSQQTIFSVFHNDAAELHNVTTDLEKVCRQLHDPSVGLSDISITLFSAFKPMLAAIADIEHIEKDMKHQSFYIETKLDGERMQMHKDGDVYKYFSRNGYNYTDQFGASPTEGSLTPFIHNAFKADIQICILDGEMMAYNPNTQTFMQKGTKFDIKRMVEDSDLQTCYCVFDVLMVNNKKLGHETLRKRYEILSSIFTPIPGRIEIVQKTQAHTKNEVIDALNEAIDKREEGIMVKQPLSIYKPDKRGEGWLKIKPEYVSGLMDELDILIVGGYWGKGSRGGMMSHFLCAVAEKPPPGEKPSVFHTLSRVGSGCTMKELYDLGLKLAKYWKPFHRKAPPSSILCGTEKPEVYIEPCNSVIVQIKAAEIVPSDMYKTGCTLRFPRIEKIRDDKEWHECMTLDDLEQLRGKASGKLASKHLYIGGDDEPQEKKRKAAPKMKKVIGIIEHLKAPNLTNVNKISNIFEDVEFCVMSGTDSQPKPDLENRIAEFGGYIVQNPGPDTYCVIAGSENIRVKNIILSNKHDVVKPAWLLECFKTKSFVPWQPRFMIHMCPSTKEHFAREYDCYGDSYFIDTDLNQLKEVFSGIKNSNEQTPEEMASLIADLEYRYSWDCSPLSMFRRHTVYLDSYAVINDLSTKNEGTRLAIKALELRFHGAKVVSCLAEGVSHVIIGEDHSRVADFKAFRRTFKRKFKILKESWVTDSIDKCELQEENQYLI
T1 sequence (Q13426 whole entry partner): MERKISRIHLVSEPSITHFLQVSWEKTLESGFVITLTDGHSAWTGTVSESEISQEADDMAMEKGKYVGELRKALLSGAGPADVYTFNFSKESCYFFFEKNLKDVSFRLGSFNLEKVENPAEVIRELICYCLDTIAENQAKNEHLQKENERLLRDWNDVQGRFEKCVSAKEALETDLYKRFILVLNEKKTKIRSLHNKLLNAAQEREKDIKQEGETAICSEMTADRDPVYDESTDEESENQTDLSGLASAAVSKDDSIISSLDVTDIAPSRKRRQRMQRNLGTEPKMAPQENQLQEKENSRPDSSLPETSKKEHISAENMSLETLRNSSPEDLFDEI

`O=c1[nH]c(=S)[nH]c(N=Cc2ccccc2)c1N=Cc1ccccc1` [SCR7, reference compound] gave a pIC50 (SUDHL8) of 4.00, a pIC50 (U118) of 3.82 and a pIC50 (Molt3) of 4.10. The pIC50 (HeLa) was 4.36, the “Inhibition of DNA Ligase IV” value (DNA Ligase IV/XRCC4) was 50% and the pIC50 (L1210) was 3.43. The pIC50 (Raji) was < 3.60, the pIC50 (EAC) was 3.88 and the t1/2 [1] was 1 h. For the same compound, the pIC50 (CEM) was < 3.70, the pIC50 [2] was < 3.60 and the pIC50 (Supt1) was 3.96. For the same compound, the pIC50 (HCT116) was 3.52, the pIC50 (LN229) was 4.22 and the pIC50 [3] was < 3.60. The pIC50 (Molt4) was 3.74, the pIC50 (Nalm6) was 4.30 and the pIC50 (MCF7) was 4.40. The pIC50 (Reh) was < 3.60, the pIC50 [4] was < 3.60 and the “Fold increased IC50 in N114” value ([4]; vs Nalm6) was 5 fold.
